Experiments:
[1] = biological target: T1, Proto-oncogene tyrosine-protein kinase Src (Gallus gallus, UniProt P00523); assay: Tested for inhibition of protein tyrosine kinase c-Src phosphorylation
[2] = biological target: T2, Epidermal growth factor receptor (Homo sapiens, UniProt P00533); assay: Tested in vitro for inhibition of EGF-receptor tyrosine kinase
[3] = biological target: Vascular endothelial growth factor receptor 2 (Homo sapiens, UniProt P35968); assay: Tested in vitro for inhibition of KDR-receptor tyrosine kinase
[4] = biological target: Cyclin-dependent kinase 1 (Homo sapiens, UniProt P06493); assay: Tested in vitro for inhibition of serine/threonine kinase Cdc2
[5] = biological target: Tyrosine-protein kinase ABL (Homo sapiens, UniProt P00519+P42684); assay: Tested in vitro for inhibition of non-receptor tyrosine kinase v-Abl; type: protein assay
[6] = biological target: Platelet-derived growth factor receptor (Mus musculus, UniProt P05622+P26618); assay: Inhibition of PDGF-receptor kinase; type: protein-complex assay
[7] = biological target: Tyrosine-protein kinase CSK (Homo sapiens, UniProt P41240); assay: Tested for inhibition of protein tyrosine kinase Csk phosphorylation in intact cells; type: cell-based
[8] = biological target: Proto-oncogene tyrosine-protein kinase Src (Gallus gallus) (UniProt P00523); assay: Tested for inhibition of protein tyrosine kinase c-Src phosphorylation in intact cells
[9] = biological target: T2, Epidermal growth factor receptor; assay: Tested for inhibition of EGF-receptor tyrosine kinase in intact cells
[10] = biological target: T1, Proto-oncogene tyrosine-protein kinase Src; assay: Inhibition of protein tyrosine kinase c-Src

Chain of Vascular endothelial growth factor receptor 2 (P35968 whole entry): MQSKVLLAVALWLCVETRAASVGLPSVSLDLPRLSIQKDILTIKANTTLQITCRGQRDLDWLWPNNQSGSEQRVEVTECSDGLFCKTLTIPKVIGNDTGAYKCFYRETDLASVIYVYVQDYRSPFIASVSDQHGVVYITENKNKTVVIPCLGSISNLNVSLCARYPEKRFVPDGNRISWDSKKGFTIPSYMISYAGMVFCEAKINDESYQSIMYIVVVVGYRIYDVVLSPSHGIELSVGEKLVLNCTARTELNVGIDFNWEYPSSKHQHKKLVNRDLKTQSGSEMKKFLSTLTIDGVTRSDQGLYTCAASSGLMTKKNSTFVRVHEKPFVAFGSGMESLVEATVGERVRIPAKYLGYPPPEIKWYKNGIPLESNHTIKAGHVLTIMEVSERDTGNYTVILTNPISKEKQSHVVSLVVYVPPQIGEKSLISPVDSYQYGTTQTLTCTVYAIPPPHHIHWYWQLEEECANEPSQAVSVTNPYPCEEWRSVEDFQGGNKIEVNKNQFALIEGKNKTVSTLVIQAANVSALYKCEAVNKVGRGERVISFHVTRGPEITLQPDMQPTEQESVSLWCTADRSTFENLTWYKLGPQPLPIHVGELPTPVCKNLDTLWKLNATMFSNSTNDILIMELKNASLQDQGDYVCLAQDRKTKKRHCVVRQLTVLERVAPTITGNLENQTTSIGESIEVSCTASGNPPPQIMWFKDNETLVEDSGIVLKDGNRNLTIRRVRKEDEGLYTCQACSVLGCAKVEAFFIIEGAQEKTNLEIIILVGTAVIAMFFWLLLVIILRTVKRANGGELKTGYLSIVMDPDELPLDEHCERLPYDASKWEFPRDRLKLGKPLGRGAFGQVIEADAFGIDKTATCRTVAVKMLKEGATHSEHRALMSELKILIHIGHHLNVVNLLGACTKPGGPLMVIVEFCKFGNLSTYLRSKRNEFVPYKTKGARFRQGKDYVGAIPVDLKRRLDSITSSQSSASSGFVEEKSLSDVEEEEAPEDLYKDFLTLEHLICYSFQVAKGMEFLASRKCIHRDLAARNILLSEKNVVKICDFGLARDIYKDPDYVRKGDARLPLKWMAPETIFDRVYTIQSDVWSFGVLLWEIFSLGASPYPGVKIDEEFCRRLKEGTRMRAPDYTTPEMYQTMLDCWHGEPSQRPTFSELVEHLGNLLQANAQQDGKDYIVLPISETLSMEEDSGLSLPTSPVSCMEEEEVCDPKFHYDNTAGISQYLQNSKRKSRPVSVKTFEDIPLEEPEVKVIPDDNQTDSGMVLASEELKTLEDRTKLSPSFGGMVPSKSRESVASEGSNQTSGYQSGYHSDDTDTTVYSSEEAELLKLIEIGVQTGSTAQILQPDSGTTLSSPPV
Chain of Tyrosine-protein kinase CSK (P41240 whole entry): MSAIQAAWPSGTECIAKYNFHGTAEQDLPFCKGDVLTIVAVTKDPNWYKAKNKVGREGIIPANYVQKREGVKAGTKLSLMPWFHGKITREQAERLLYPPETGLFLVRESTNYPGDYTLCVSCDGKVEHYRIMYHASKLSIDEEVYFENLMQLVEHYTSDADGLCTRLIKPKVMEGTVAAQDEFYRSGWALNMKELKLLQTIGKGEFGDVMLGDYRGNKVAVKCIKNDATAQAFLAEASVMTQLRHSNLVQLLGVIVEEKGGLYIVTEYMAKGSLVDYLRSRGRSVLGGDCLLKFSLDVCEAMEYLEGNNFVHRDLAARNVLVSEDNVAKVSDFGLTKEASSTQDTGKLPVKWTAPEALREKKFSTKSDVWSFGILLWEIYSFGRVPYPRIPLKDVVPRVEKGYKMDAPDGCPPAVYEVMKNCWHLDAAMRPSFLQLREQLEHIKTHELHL
Chain of Cyclin-dependent kinase 1 (P06493 whole entry): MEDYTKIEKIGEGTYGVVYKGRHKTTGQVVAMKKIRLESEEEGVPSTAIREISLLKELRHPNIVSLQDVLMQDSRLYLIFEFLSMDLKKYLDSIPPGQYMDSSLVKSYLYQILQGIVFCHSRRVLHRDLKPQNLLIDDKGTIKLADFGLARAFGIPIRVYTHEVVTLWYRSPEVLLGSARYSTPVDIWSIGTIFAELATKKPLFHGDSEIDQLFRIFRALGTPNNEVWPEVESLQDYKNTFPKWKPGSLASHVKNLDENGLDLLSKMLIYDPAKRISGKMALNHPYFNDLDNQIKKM
T2 sequence (P00533 whole entry): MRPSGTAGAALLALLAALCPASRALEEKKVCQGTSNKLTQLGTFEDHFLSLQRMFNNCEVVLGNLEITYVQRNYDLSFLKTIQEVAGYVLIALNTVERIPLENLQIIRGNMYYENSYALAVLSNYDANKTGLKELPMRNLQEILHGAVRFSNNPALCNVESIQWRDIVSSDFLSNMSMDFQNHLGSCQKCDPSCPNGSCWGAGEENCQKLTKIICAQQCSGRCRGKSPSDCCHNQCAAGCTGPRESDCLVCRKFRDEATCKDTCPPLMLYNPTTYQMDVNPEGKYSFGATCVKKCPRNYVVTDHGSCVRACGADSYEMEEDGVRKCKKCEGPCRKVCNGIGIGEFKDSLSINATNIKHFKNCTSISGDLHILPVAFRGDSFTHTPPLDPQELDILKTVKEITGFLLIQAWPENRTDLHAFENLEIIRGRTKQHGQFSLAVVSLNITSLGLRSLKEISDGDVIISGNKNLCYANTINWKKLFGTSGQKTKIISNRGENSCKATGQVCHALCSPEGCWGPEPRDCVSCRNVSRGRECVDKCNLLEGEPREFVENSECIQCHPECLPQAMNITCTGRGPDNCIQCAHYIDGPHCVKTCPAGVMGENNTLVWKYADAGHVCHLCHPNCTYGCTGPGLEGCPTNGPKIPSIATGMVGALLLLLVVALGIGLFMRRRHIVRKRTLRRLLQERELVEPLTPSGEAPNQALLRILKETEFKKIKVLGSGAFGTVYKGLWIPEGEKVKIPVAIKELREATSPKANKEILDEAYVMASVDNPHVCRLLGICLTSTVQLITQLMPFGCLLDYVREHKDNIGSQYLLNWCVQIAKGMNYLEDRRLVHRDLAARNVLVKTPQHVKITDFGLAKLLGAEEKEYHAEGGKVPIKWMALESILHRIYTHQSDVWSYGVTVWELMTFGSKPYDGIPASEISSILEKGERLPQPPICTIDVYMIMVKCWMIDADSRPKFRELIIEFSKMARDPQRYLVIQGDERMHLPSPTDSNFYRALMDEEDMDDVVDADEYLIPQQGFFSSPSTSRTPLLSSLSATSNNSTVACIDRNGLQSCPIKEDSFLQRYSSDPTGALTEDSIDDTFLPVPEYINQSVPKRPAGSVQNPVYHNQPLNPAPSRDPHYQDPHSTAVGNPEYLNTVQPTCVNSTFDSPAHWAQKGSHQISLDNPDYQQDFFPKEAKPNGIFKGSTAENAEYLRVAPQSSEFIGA

## Clc1ncnc2c1c(-c1ccccc1)cn2-c1ccccc1
[1]
  IC50: 8 µM

## Nc1ncnc2c1c(-c1cccc(Cl)c1)cn2-c1ccccc1
[2]
  IC50: 0.7 µM
[3]
  IC50: 1 µM
[4]
  IC50: > 100 µM
[1]
  IC50: 0.2 µM
[5]
  IC50: 0.6 µM

## Cc1ccccc1-c1cn(-c2ccccc2)c2ncnc(N)c12
[2]
  IC50: 2.65 µM
[4]
  IC50: 90 µM
[1]
  IC50: 6 µM

## COc1cccc(-c2cn(-c3cccc(CO)c3)c3ncnc(N)c23)c1
[2]
  IC50: 0.8 µM
[3]
  IC50: > 1 µM
[4]
  IC50: 33 µM
[1]
  IC50: 0.06 µM
[5]
  IC50: 0.05 µM

## COc1cccc(-c2cn(-c3ccccc3)c3ncnc(N)c23)c1
[3]
  IC50: > 1 µM
[6]
  IC50: 2.5 µM
[7]
  IC50: > 5 µM
[4]
  IC50: 43 µM
[1]
  IC50: 0.05 µM
[8]
  IC50: 3.3 µM
[5]
  IC50: 0.06 µM

## Nc1ncnc2c1c(-c1ccccc1)cn2-c1ccccc1CNCCO
[2]
  IC50: 6.4 µM
[4]
  IC50: > 10 µM
[1]
  IC50: 5 µM

## Nc1ncnc2c1c(-c1ccccc1)cn2-c1ccc(CO)cc1
[2]
  IC50: 0.7 µM
[3]
  IC50: 0.6 µM
[4]
  IC50: 30 µM
[1]
  IC50: 0.02 µM
[5]
  IC50: 0.07 µM

## Nc1ncnc2c1c(-c1ccccc1)cn2-c1cccc(CO)c1
[2]
  IC50: 0.6 µM
[9]
  IC50: 12 µM
[6]
  IC50: 10 µM
[7]
  IC50: > 5 µM
[4]
  IC50: 47 µM
[1]
  IC50: 0.06 µM
[8]
  IC50: > 5 µM
[5]
  IC50: 0.2 µM

## Nc1ncnc2c1c(-c1ccccc1)cn2-c1ccc(CNCCO)cc1
[2]
  IC50: 1.4 µM
[7]
  IC50: 4.3 µM
[4]
  IC50: 82.5 µM
[1]
  IC50: 0.03 µM
[8]
  IC50: 0.7 µM
[5]
  IC50: 1 µM

## Nc1ncnc2c1c(-c1ccccc1)nn2-c1ccccc1
[10]
  IC50: 0.5 µM

## Nc1ncnc2c1c(-c1ccccc1)cn2-c1cccc(CNCCO)c1
[2]
  IC50: 3.4 µM
[3]
  IC50: 3.6 µM
[7]
  IC50: 5 µM
[4]
  IC50: > 10 µM
[1]
  IC50: 0.01 µM
[8]
  IC50: 4 µM

## O=c1[nH]cnc2c1c(-c1ccccc1)cn2-c1ccccc1
[1]
  IC50: 10 µM

## COc1cccc(-c2cn(-c3ccc(CCN(C)CCO)cc3)c3ncnc(N)c23)c1
[2]
  IC50: 0.3 µM
[3]
  IC50: > 1 µM
[9]
  IC50: 10 µM
[6]
  IC50: 0.3 µM
[7]
  IC50: > 5 µM
[4]
  IC50: > 10 µM
[1]
  IC50: 0.03 µM
[8]
  IC50: 0.2 µM
[5]
  IC50: 0.3 µM

## COc1ccc(-c2cn(-c3ccccc3)c3ncnc(N)c23)cc1
[2]
  IC50: 0.35 µM
[3]
  IC50: 0.2 µM
[4]
  IC50: > 10 µM
[1]
  IC50: 0.15 µM
[5]
  IC50: 0.4 µM

## CNc1ncnc2c1c(-c1ccccc1)cn2-c1ccccc1
[2]
  IC50: 31 µM
[4]
  IC50: > 10 µM
[1]
  IC50: > 10 µM
[5]
  IC50: > 10 µM

## COc1cccc(-c2cn(-c3ccc(CNCCO)cc3)c3ncnc(N)c23)c1
[2]
  IC50: 0.3 µM
[3]
  IC50: > 1 µM
[9]
  IC50: 6.4 µM
[6]
  IC50: 0.6 µM
[7]
  IC50: > 5 µM
[4]
  IC50: > 10 µM
[1]
  IC50: 0.03 µM
[8]
  IC50: 0.5 µM
[5]
  IC50: 0.23 µM

## Nc1ncnc2c1c(-c1ccccc1)cn2-c1ccccc1CO
[2]
  IC50: 1.1 µM
[4]
  IC50: > 10 µM
[1]
  IC50: 0.3 µM
[5]
  IC50: 3.4 µM

## Nc1ncnc2c1c(-c1ccccc1)cn2-c1ccccc1
[7]
  IC50: > 5 µM
[4]
  IC50: 54 µM
[1]
  IC50: 0.1 µM
[8]
  IC50: 3.5 µM
[5]
  IC50: 0.02 µM

## COc1cccc(-c2cn(-c3ccc(CC(=O)NCCO)cc3)c3ncnc(N)c23)c1
[2]
  IC50: 0.8 µM
[3]
  IC50: > 1 µM
[7]
  IC50: > 5 µM
[4]
  IC50: > 10 µM
[1]
  IC50: 0.02 µM
[8]
  IC50: 3.9 µM
[5]
  IC50: 0.22 µM

## CCOC(=O)c1ccc(-c2cn(-c3ccccc3)c3ncnc(N)c23)cc1
[2]
  IC50: 1.3 µM
[3]
  IC50: 1.1 µM
[4]
  IC50: > 10 µM
[1]
  IC50: 10 µM
[5]
  IC50: > 10 µM

— ChEMBL document CHEMBL1133080, “Substituted 5,7-diphenyl-pyrrolo[2,3d]pyrimidines: potent inhibitors of the tyrosine kinase c-Src” (Bioorg Med Chem Lett, 2000)
